Assay results taken from patent US5053070A, “Pyrimidine derivatives, preparation processes thereof, herbicide containing the same, and herbicidal compositions containing the same along with other active ingredient” (Mitsui Toatsu Chemicals, Incorporated, priority 1988, dated 1991).
≈ marks a conversion by molar mass, not a printed value. Each block holds one compound with its values, some of them ahead of it.

Columns and labels:
[1] = tested on: ALS (acetolactate syntase); test: ALS enzyme assay (Test 1); format: biochemical, barnyardgrass; conditions: 1,000 ppm (0.5 mg/0.5 ml)
Procedure: To determine the selectivity in enzyme level between crops and weeds, and ALS enzyme assay was conducted using pea as a representative of broadleaf crops and barnyardgrass as a representative of narrowleaf weeds.
After seeds of pea and barnyardgrass were allowed to germinate at 25° C. for 8-14 days in a dark place, partially-purified suspensions (Suspensions A) of acetolactate syntase were separately obtained from seedlings in accordance with the method described in the literature, Plant Physiology, 75, 827-831.
In a test tube, 0.5 mg of one of test compounds was weighed, followed by the addition of 0.15 ml of a 20 mM K2 HPO4 solution and 0.25 ml of a reaction substrate medium which consisted of 40 mM of K2 HPO4, 40 mM of sodium pyruvate, 1 mM of TPP, 1 mM of MgCl2 and 20 μM of FAD so that 0.4 ml of a reaction solution (Solution B) was prepared. Added to 0.4 ml of Solution B was 0.1 ml of suspension A. After the resultant mixture was shaken for 1 hour in a thermostat water bath controlled at 30° C., 50 μl of 6N sulfuric acid were added to terminate the reaction.
Next, the reaction-terminated liquid mixture was transferred into a thermostat water bath controlled at 60° C. and was heated for 15 minutes. Thereafter, 0.5 ml of a 0.5% creatine solution and 0.5 ml of a 5% alkaline α-naphthol solution were added, and the resultant mixture was maintained at 60° C. for 15 minutes. As a result, the test solution developed a pink-red color. After the above operation, the absorbance of the test solution at 525 nm was measured by a spectrophotometer (Absorbance 1 of Test Compound).
On the other hand, the absorbance (Absorbance 2 of Blank) of a solution obtained by subjecting a portion of Solution B, said portion being free of the test compound, to the above operation and the absorbance (Absorbance 3 of sulfuric acid terminated) of another solution obtained by subjecting another portion of Solution B, said portion containing 50 μl of 6N sulfuric acid as a test compound, were measured at the same time. Based on the values of the respective measurements, the enzyme assay at 1,000 ppm (0.5 mg/0.5 ml) of each compound was determined. [formula]

cotton [2] = test: Upland soil application test (Test 2), crop injury; format: in vivo; conditions: 30 g ai/a, soil spray before emergence, 30 days later
Procedure: (§1) Resin-made 1/2500-are pots were filled with the soil of an upland field. After they were fertilized, soybean, peanut and cotton were seeded and 2-3 cm soil covering was applied. Seeds of redroot pigweed, common lambsquarters, barnyardgrass, green foxtail, large crabgrass, foxtail meadow and johnsongrass had been uniformly mixed with the soil. They were allowed to germinate in a green house. One day later (before emergence of weeds), a wettable powder prepared from a predetermined amount of each test compound in a similar manner to the method described in Formulation Example 1 was diluted with water and then sprayed evenly at an application rate equal to 10 l per are onto the surface of the soil by means of a pressure-operated ULV (ultra low volume) sprayer. Influence to the crops and weeds were observed 30 days later. The results are shown in Table 3, in which the degree of damages of each test plant and the degree of injury to each crop were determined by comparing the air-dried weights of the test plant and crop with those of the corresponding plant and crop in untreated pots and are shown in accordance with the following standard: […]

peanut [3] = test: Upland soil application test (Test 2), crop injury; format: in vivo; conditions: 30 g ai/a, soil spray before emergence, 30 days later
Procedure: as §1

soybean [4] = test: Upland soil application test (Test 2), crop injury; format: in vivo; conditions: 30 g ai/a, soil spray before emergence, 30 days later
Procedure: as §1

cotton [5] = test: Upland foliar application test (Test 3), crop injury; format: in vivo; conditions: 30 g ai/a, foliar spray at 2-3 leaves, 30th day
Procedure: (§2) Resin-made 1/10000-are pots were filled with the soil of an upland field. Redroot pigweed, common lambsquarters, foxtail meadow, johnsongrass, barnyardgrass, green foxtail, large crabgrass, soybean, peanut and cotton were separately seeded and were allowed to germinate in a green house. When each plant grew to the stage of 2-3 leaves, an emulsion formulated from a predetermined amount of each test compound in a similar manner to the method described in Formulation Example 11 was diluted with water to a predetermined dilution rate and then sprayed at an application rate equal to 5 l per are onto the foliage of each plant by means of a pressure-operated ULV (ultra low volume) sprayer. Influence to the crops and weeds were observed on the 30th day after the spray of the herbicides. The results are shown in Table 4 in which the degree of damages of each test plant and the degree of injury to each crop are shown in a similar manner to Test 2.

peanut [6] = test: as above; format: in vivo; conditions: 30 g ai/a, foliar spray at 2-3 leaves, 30th day
Procedure: as §2

soybean [7] = test: as above; format: in vivo; conditions: 30 g ai/a, foliar spray at 2-3 leaves, 30th day
Procedure: as §2

Sagittaria pygmaea = test: Treatment of soil under submerged condition, post-emergence (Test 5); format: in vivo; conditions: 30 g ai/a granule, 30 days later
Procedure: (§3) 1/5000-are Wagner pots were filled with soil. Seeds or tubers of barnyardgrass, Monochoria vaginalis, bulrush, Sagittaria pygmaea, Cyperus serroylnus and Eleocharis kuroguwai were seeded or planted under submerged condition. Two pairs of rice seedlings (2-3 leaf stage), which had been reared in advance, were transplanted to each pot and were allowed to grow in a green house. Each pair consisted of two rice seedlings. When the barnyardgrass grew to two-leaf stage, each pot was treated with a granule which had been prepared by processing a predetermined amount of the test composition in accordance with a similar method to the method described in Formulation Example 9. The state of emergence of weeds and the state of injury of rice were observed 30 days later.
(§4) In the table, the degrees of damages of the test plants and the degrees of injury of the rice are shown in a similar manner to Example 2.

barnyardgrass = test: as above; format: in vivo; conditions: 30 g ai/a granule, post-emergence (barnyardgrass two-leaf stage), 30 days later
Procedure: as §3, §4

bulrush = test: as above; format: in vivo; conditions: 30 g ai/a granule, 30 days later
Procedure: as §3, §4

rice = test: Treatment of soil under submerged condition, post-emergence (Test 5), injury; format: in vivo; conditions: 30 g ai/a granule, 30 days later
Procedure: as §3, §4

narrowleaf waterplantain = test: Petri dish test (Test 6); format: in vivo; conditions: 336 h; seeds on filter paper, 25° C., 14 days; read-out: I80 (ppm)
Procedure: A filter paper was placed in each glass-made Petri dish having a diameter of 9 cm. A compound dissolved in acetone was added in a predetermined amount. The filter paper was then dried in air to remove acetone. Seeds of narrowleaf waterplantain were placed on the filter paper and 10 ml of water were poured into the Petri dish. The seeds were allowed to grow at 25° C. in a bright room. Fourteen days later, the state of growth of narrowleaf water-plantain was observed.
In the table, the degree of damages of the test plant was determined by comparing the state of growth of the plant with that of the plant in an untreated group and is shown in accordance with the following standard: […]

SMILES: COc1cc(OC)nc(Oc2ccccc2C=NOCc2ccccc2)n1 [Compound No. 15]
- Inhibitory activity (%) Barnyardgrass [1]: 23%
- Injury Cotton (cotton [2]): 0 (91-100 (No damages))
- Injury Peanut (peanut [3]): 0 (91-100 (No damages))
- Injury Soybean (soybean [4]): 0 (91-100 (No damages))
- Injury Cotton (cotton [5]): 0 (91-100 (No damages))
- Injury Peanut (peanut [6]): 0 (91-100 (No damages))
- Injury Soybean (soybean [7]): 0 (91-100 (No damages))
- Herbicidal effects Sagittaria Pygmaea (Sagittaria pygmaea): 3 (11-40 (Medium damages))
- Herbicidal effects Barnyardgrass (barnyardgrass): 5 (0-5 (Death))
- Herbicidal effects Bulrush (bulrush): 4 (6-10 (Severe damages))
- Injury Rice (rice): 1 (71-90 (Slight damages))
- IC80 (narrowleaf waterplantain): 100 µg/mL (≈ 274 µM)

SMILES: COc1cc(OC)nc(Oc2ccccc2C=NOCc2ccc(Cl)cc2Cl)n1 [Compound No. 17]
- Inhibitory activity (%) Barnyardgrass [1]: 15%
- Injury Cotton (cotton [2]): 0 (91-100 (No damages))
- Injury Peanut (peanut [3]): 0 (91-100 (No damages))
- Injury Soybean (soybean [4]): 0 (91-100 (No damages))
- Injury Cotton (cotton [5]): 0 (91-100 (No damages))
- Injury Peanut (peanut [6]): 0 (91-100 (No damages))
- Injury Soybean (soybean [7]): 0 (91-100 (No damages))
- Herbicidal effects Sagittaria Pygmaea (Sagittaria pygmaea): 3 (11-40 (Medium damages))
- Herbicidal effects Barnyardgrass (barnyardgrass): 3 (11-40 (Medium damages))
- Herbicidal effects Bulrush (bulrush): 4 (6-10 (Severe damages))
- Injury Rice (rice): 0 (91-100 (No damages))
- IC80 (narrowleaf waterplantain): 100 µg/mL (≈ 230 µM)

SMILES: COc1cc(OC)nc(Oc2ccccc2C=NOCC=Cc2cccc(Cl)c2)n1 [Compound No. 26, 0-(3-chlorocinnamyl)-2-(4,6-dimethoxy-2-pyrimidinyloxy)benzaldxime]
- Inhibitory activity (%) Barnyardgrass [1]: 89%
- Injury Cotton (cotton [2]): 0 (91-100 (No damages))
- Injury Peanut (peanut [3]): 0 (91-100 (No damages))
- Injury Soybean (soybean [4]): 0 (91-100 (No damages))
- Injury Cotton (cotton [5]): 0 (91-100 (No damages))
- Injury Peanut (peanut [6]): 0 (91-100 (No damages))
- Injury Soybean (soybean [7]): 0 (91-100 (No damages))
- Herbicidal effects Sagittaria Pygmaea (Sagittaria pygmaea): 4 (6-10 (Severe damages))
- Herbicidal effects Barnyardgrass (barnyardgrass): 5 (0-5 (Death))
- Herbicidal effects Bulrush (bulrush): 4 (6-10 (Severe damages))
- Injury Rice (rice): 0 (91-100 (No damages))
- IC80 (narrowleaf waterplantain): 2 µg/mL (≈ 4.7 µM)

SMILES: COc1cc(OC)nc(Oc2ccccc2C=NOCC=Cc2ccccc2Cl)n1 [Compound No. 27]
- Inhibitory activity (%) Barnyardgrass [1]: 100%
- Injury Cotton (cotton [2]): 0 (91-100 (No damages))
- Injury Peanut (peanut [3]): 0 (91-100 (No damages))
- Injury Soybean (soybean [4]): 0 (91-100 (No damages))
- Injury Cotton (cotton [5]): 0 (91-100 (No damages))
- Injury Peanut (peanut [6]): 0 (91-100 (No damages))
- Injury Soybean (soybean [7]): 0 (91-100 (No damages))
- Herbicidal effects Sagittaria Pygmaea (Sagittaria pygmaea): 4 (6-10 (Severe damages))
- Herbicidal effects Barnyardgrass (barnyardgrass): 5 (0-5 (Death))
- Herbicidal effects Bulrush (bulrush): 4 (6-10 (Severe damages))
- Injury Rice (rice): 0 (91-100 (No damages))
- IC80 (narrowleaf waterplantain): 2 µg/mL (≈ 4.7 µM)

SMILES: COc1cc(OC)nc(Oc2ccccc2C=NOCC=Cc2ccc(Cl)cc2)n1 [Compound No. 28]
- Inhibitory activity (%) Barnyardgrass [1]: 91%
- Injury Cotton (cotton [2]): 0 (91-100 (No damages))
- Injury Peanut (peanut [3]): 0 (91-100 (No damages))
- Injury Soybean (soybean [4]): 0 (91-100 (No damages))
- Injury Cotton (cotton [5]): 0 (91-100 (No damages))
- Injury Peanut (peanut [6]): 0 (91-100 (No damages))
- Injury Soybean (soybean [7]): 0 (91-100 (No damages))
- Herbicidal effects Sagittaria Pygmaea (Sagittaria pygmaea): 4 (6-10 (Severe damages))
- Herbicidal effects Barnyardgrass (barnyardgrass): 5 (0-5 (Death))
- Herbicidal effects Bulrush (bulrush): 4 (6-10 (Severe damages))
- Injury Rice (rice): 0 (91-100 (No damages))
- IC80 (narrowleaf waterplantain): 2 µg/mL (≈ 4.7 µM)

The next lines start with results.

- Inhibitory activity (%) Barnyardgrass [1]: 85%
SMILES: C#CCON=Cc1ccccc1Oc1nc(OC)cc(OC)n1 [Compound No. 13, 0-(2-propynyl)-2-(4,6-dimethoxy-2-pyrimidinyloxy)benzaldoxime]
- Injury Cotton (cotton [2]): 0 (91-100 (No damages))
- Injury Peanut (peanut [3]): 0 (91-100 (No damages))
- Injury Soybean (soybean [4]): 0 (91-100 (No damages))
- Injury Cotton (cotton [5]): 0 (91-100 (No damages))
- Injury Peanut (peanut [6]): 0 (91-100 (No damages))
- Injury Soybean (soybean [7]): 0 (91-100 (No damages))
- Herbicidal effects Sagittaria Pygmaea (Sagittaria pygmaea): 3 (11-40 (Medium damages))
- Herbicidal effects Barnyardgrass (barnyardgrass): 5 (0-5 (Death))
- Herbicidal effects Bulrush (bulrush): 4 (6-10 (Severe damages))
- Injury Rice (rice): 0 (91-100 (No damages))
- IC80 (narrowleaf waterplantain): 5 µg/mL (≈ 16 µM)

- Inhibitory activity (%) Barnyardgrass [1]: 56%
SMILES: C=C(Cl)CON=Cc1ccccc1Oc1nc(OC)cc(OC)n1 [Compound No. 14]
- Injury Cotton (cotton [2]): 0 (91-100 (No damages))
- Injury Peanut (peanut [3]): 0 (91-100 (No damages))
- Injury Soybean (soybean [4]): 0 (91-100 (No damages))
- Injury Cotton (cotton [5]): 0 (91-100 (No damages))
- Injury Peanut (peanut [6]): 0 (91-100 (No damages))
- Injury Soybean (soybean [7]): 0 (91-100 (No damages))
- Herbicidal effects Sagittaria Pygmaea (Sagittaria pygmaea): 4 (6-10 (Severe damages))
- Herbicidal effects Barnyardgrass (barnyardgrass): 5 (0-5 (Death))
- Herbicidal effects Bulrush (bulrush): 5 (0-5 (Death))
- Injury Rice (rice): 1 (71-90 (Slight damages))
- IC80 (narrowleaf waterplantain): 100 µg/mL (≈ 286 µM)

- Inhibitory activity (%) Barnyardgrass [1]: 36%
SMILES: COc1cc(OC)nc(Oc2ccccc2C=NO)n1 [Compound No. 24, 2-(4,6-dimethoxy-2-pyrimidinyloxy)-benzaloxime]
- Injury Cotton (cotton [2]): 0 (91-100 (No damages))
- Injury Peanut (peanut [3]): 0 (91-100 (No damages))
- Injury Soybean (soybean [4]): 0 (91-100 (No damages))
- Injury Cotton (cotton [5]): 1 (71-90 (Slight damages))
- Injury Peanut (peanut [6]): 0 (91-100 (No damages))
- Injury Soybean (soybean [7]): 1 (71-90 (Slight damages))
- Herbicidal effects Sagittaria Pygmaea (Sagittaria pygmaea): 4 (6-10 (Severe damages))
- Herbicidal effects Barnyardgrass (barnyardgrass): 5 (0-5 (Death))
- Herbicidal effects Bulrush (bulrush): 5 (0-5 (Death))
- Injury Rice (rice): 1 (71-90 (Slight damages))
- IC80 (narrowleaf waterplantain): 100 µg/mL (≈ 363 µM)
